In patent publication US11173151B2, “Substituted triazole derivatives and uses thereof” (BAYER AKTIENGESELLSCHAFT, priority 2017, dated 2021):
pIC50: −log10 of the molar value.

How the values were obtained:
[1] = biological target: T1, human V1a receptor (Homo sapiens, UniProt P37288); assay: Cellular in vitro assay for determining vasopressin receptor activity, V1a receptor cell line (CHO, aequorin luminescence); format: cell-based; details: for pIC50: CHO cell line transfected with human V1a receptor, [Arg]-vasopressin at EC50 concentration, read-out: IC50 hV1a; for ratio IC50 hV2/hV1a: selectivity ratio IC50 hV2 / IC50 hV1a
T1 construct: expressed in transfected cells; host or cells: CHO K1 (ATCC), also stably transfected with a modified aequorin
T1 sequence (P37288 whole entry): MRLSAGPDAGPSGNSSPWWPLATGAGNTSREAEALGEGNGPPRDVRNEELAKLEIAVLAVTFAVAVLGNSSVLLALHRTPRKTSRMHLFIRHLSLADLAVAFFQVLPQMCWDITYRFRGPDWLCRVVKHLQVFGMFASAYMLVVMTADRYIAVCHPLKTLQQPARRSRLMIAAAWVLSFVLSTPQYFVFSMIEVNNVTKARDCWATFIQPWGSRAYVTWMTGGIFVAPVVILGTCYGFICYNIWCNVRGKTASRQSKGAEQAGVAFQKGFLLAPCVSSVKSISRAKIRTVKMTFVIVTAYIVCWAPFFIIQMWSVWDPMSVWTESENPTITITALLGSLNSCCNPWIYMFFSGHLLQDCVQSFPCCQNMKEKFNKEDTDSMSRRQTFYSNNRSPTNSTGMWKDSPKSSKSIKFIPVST
Procedure, shortened: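 IC50 from inhibition of [Arg]-vasopressin (EC50 concentration)-evoked aequorin luminescence in CHO K1 cells, with 10-min compound pretreatment.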

[2] = biological target: T2, human V2 receptor (Homo sapiens, UniProt P30518); assay: Cellular in vitro assay for determining vasopressin receptor activity, V2 receptor cell line (CHO, CRE-luciferase); format: cell-based; details: CHO cell line transfected with human V2 receptor; [Arg8]-vasopressin at EC50 concentration; read-out: IC50 hV2
T2 construct: expressed in transfected cells; host or cells: CHO K1 (ATCC) expressing firefly luciferase under a CRE-responsive promoter
T2 sequence (P30518 whole entry): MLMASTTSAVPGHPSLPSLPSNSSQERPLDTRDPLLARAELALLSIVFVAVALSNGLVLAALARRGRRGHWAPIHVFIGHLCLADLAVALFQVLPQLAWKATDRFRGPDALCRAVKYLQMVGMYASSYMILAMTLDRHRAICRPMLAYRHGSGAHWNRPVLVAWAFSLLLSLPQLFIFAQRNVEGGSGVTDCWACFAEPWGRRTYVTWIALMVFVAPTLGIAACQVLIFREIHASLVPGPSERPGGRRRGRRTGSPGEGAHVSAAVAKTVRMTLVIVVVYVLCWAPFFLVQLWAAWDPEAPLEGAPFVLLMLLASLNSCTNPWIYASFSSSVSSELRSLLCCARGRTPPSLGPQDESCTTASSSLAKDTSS

SMILES	pIC50 [1]	ratio IC50 hV2/hV1a [1]	pIC50 [2]
O=C(NC1CC(F)(F)C1)c1ncccc1-n1cnc(Cn2nc(-c3ccc(Cl)cc3)n(C[C@@H](O)C(F)(F)F)c2=O)n1 [Example 465, 3-[3-({3-(4-Chlorophenyl)-5-oxo-4-[(2R)-3,3,3-trifluoro-2-hydroxypropyl]-4,5-dihydro-1H-1,2,4-triazol-1-yl}methyl)-1H-1,2,4-triazol-1-yl]-N-(3,3-difluorocyclobutyl)pyridine-2-carboxamide]	6.77	21.2	5.44
CC1CN(C(=O)c2ncccc2-n2cnc(Cn3nc(-c4ccc(Cl)cc4)n(C[C@@H](O)C(F)(F)F)c3=O)n2)CCO1 (stereo partly drawn) [Example 466, 5-(4-Chlorophenyl)-2-{[1-(2-{[2-methylmorpholin-4-yl]carbonyl}pyridin-3-yl)-1H-1,2,4-triazol-3-yl]methyl}-4-[(2R)-3,3,3-trifluoro-2-hydroxypropyl]-2,4-dihydro-3H-1,2,4-triazol-3-one]	6.15	93.0	4.18
O=C(c1ncccc1-n1cnc(Cn2nc(-c3ccc(Cl)cc3)n(C[C@@H](O)C(F)(F)F)c2=O)n1)N1CCC(O)(C(F)(F)F)C1 (stereo partly drawn) [Example 468, 5-(4-Chlorophenyl)-2-{[1-(2-{[3-hydroxy-3-(trifluoromethyl)pyrrolidin-1-yl]carbonyl}pyridin-3-yl)-1H-1,2,4-triazol-3-yl]methyl}-4-[(2R)-3,3,3-trifluoro-2-hydroxypropyl]-2,4-dihydro-3H-1,2,4-triazol-3-one]	6.38	76.2	4.49
O=C(c1ncccc1-n1cnc(Cn2nc(-c3ccc(Cl)cc3)n(C[C@@H](O)C(F)(F)F)c2=O)n1)N1CCOC(C(F)(F)F)C1 (stereo partly drawn) [Example 470, 5-(4-Chlorophenyl)-4-[(2R)-3,3,3-trifluoro-2-hydroxypropyl]-2-{[1-(2-{[2-(trifluoromethyl)morpholin-4-yl]carbonyl}pyridin-3-yl)-1H-1,2,4-triazol-3-yl]methyl}-2,4-dihydro-3H-1,2,4-triazol-3-one]	6.12	42.7	4.49
O=C(c1ncccc1-n1cnc(Cn2nc(-c3ccc(Cl)cc3)n(C[C@@H](O)C(F)(F)F)c2=O)n1)N1CCCCC1 [Example 471, 5-(4-chlorophenyl)-2-({1-[2-(piperidin-1-ylcarbonyl)pyridin-3-yl]-1H-1,2,4-triazol-3-yl}methyl)-4-[(2R)-3,3,3-trifluoro-2-hydroxypropyl]-2,4-dihydro-3H-1,2,4-triazol-3-one]	6.82	139.3	4.68
O=C(c1ncccc1-n1cnc(Cn2nc(-c3ccc(Cl)cc3)n(C[C@@H](O)C(F)(F)F)c2=O)n1)N1CCOCC1 [Example 472, 5-(4-Chlorophenyl)-2-({1-[2-(morpholin-4-ylcarbonyl)pyridin-3-yl]-1H-1,2,4-triazol-3-yl}methyl)-4-[(2R)-3,3,3-trifluoro-2-hydroxypropyl]-2,4-dihydro-3H-1,2,4-triazol-3-one]	6.49	206.3	4.18
O=C(NC1(C(F)(F)F)CC1)c1ncccc1-n1cnc(Cn2nc(-c3ccc(Cl)cc3)n(C[C@@H](O)C(F)(F)F)c2=O)n1 [Example 473, 3-[3-({3-(4-Chlorophenyl)-5-oxo-4-[(2R)-3,3,3-trifluoro-2-hydroxypropyl]-4,5-dihydro-1H-1,2,4-triazol-1-yl}methyl)-1H-1,2,4-triazol-1-yl]-N-[1-(trifluoromethyl)cyclopropyl]pyridine-2-carboxamide]	7.04	19.6	5.74
CC1(C)COCCN1C(=O)c1ncccc1-n1cnc(Cn2nc(-c3ccc(Cl)cc3)n(C[C@H](O)C(F)(F)F)c2=O)n1 [Example 474, 5-(4-Chlorophenyl)-2-[(1-{2-[(3,3-dimethylmorpholin-4-yl)carbonyl]pyridin-3-yl}-1H-1,2,4-triazol-3-yl)methyl]-4-[(2S)-3,3,3-trifluoro-2-hydroxypropyl]-2,4-dihydro-3H-1,2,4-triazol-3-one]	7.62	937.5	4.65
CC1(C)COCCN1C(=O)c1ncccc1-n1cnc(Cn2nc(-c3ccc(Cl)cc3)n(C[C@@H](O)C(F)(F)F)c2=O)n1 [Example 475, 5-(4-Chlorophenyl)-2-[(1-{2-[(3,3-dimethylmorpholin-4-yl)carbonyl]pyridin-3-yl}-1H-1,2,4-triazol-3-yl)methyl]-4-[(2R)-3,3,3-trifluoro-2-hydroxypropyl]-2,4-dihydro-3H-1,2,4-triazol-3-one]	7.05	733.3	4.18
O=C(c1ncccc1-n1cnc(Cn2nc(-c3ccc(Cl)cc3)n(C[C@@H](O)C(F)(F)F)c2=O)n1)N1CCC[C@H]1C(F)(F)F [Example 477, 5-(4-Chlorophenyl)-4-[(2R)-3,3,3-trifluoro-2-hydroxypropyl]-2-{[1-(2-{[(2S)-2-(trifluoromethyl)pyrrolidin-1-yl]carbonyl}pyridin-3-yl)-1H-1,2,4-triazol-3-yl]methyl}-2,4-dihydro-3H-1,2,4-triazol-3-one]	6.34	23.9	4.96
O=C(c1ncccc1-n1cnc(Cn2nc(-c3ccc(Cl)cc3)n(C[C@@H](O)C(F)(F)F)c2=O)n1)N1CCC[C@@H]1C(F)(F)F [Example 478, 5-(4-Chlorophenyl)-4-[(2R)-3,3,3-trifluoro-2-hydroxypropyl]-2-{[1-(2-{[(2R)-2-(trifluoromethyl)pyrrolidin-1-yl]carbonyl}pyridin-3-yl)-1H-1,2,4-triazol-3-yl]methyl}-2,4-dihydro-3H-1,2,4-triazol-3-one]	6.54	26.9	5.11
O=C(c1ncccc1-n1cnc(Cn2nc(-c3ccc(Cl)cc3)n(C[C@@H](O)C(F)(F)F)c2=O)n1)N1CCS(=O)(=O)CC1 [Example 479, 5-(4-Chlorophenyl)-2-[(1-{2-[(1,1-dioxidothiomorpholin-4-yl)carbonyl]pyridin-3-yl}-1H-1,2,4-triazol-3-yl)methyl]-4-[(2R)-3,3,3-trifluoro-2-hydroxypropyl]-2,4-dihydro-3H-1,2,4-triazol-3-one]	5.85	22.9	4.49
CN(CC1CC1)C(=O)c1ncccc1-n1cnc(Cn2nc(-c3ccc(Cl)cc3)n(C[C@@H](O)C(F)(F)F)c2=O)n1 [Example 482, 3-[3-({3-(4-Chlorophenyl)-5-oxo-4-[(2R)-3,3,3-trifluoro-2-hydroxypropyl]-4,5-dihydro-1H-1,2,4-triazol-1-yl}methyl)-1H-1,2,4-triazol-1-yl]-N-(cyclopropylmethyl)-N-methylpyridine-2-carboxamide]	7.00	323.2	4.49
CC1(NC(=O)c2ncccc2-n2cnc(Cn3nc(-c4ccc(Cl)cc4)n(C[C@@H](O)C(F)(F)F)c3=O)n2)CC1 [Example 483, 3-[3-({3-(4-Chlorophenyl)-5-oxo-4-[(2R)-3,3,3-trifluoro-2-hydroxypropyl]-4,5-dihydro-1H-1,2,4-triazol-1-yl}methyl)-1H-1,2,4-triazol-1-yl]-N-(1-methylcyclopropyl)pyridine-2-carboxamide]	7.43	106.8	5.40
NC(=O)[C@H]1CC(F)(F)CN1C(=O)c1ncccc1-n1cnc(Cn2nc(-c3ccc(Cl)cc3)n(C[C@@H](O)C(F)(F)F)c2=O)n1 [Example 486, 1-({3-[3-({3-(4-Chlorophenyl)-5-oxo-4-[(2R)-3,3,3-trifluoro-2-hydroxypropyl]-4,5-dihydro-1H-1,2,4-triazol-1-yl}methyl)-1H-1,2,4-triazol-1-yl]pyridin-2-yl}carbonyl)-4,4-difluoro-D-prolinamide]	6.96	290.9	4.49
O=C(NC1CC1)c1ccncc1-n1cnc(Cn2nc(-c3ccc(Cl)cc3)n(C[C@H](O)C(F)(F)F)c2=O)n1 [Example 488, 3-[3-({3-(4-chlorophenyl)-5-oxo-4-[(2S)-3,3,3-trifluoro-2-hydroxypropyl]-4,5-dihydro-1H-1,2,4-triazol-1-yl}methyl)-1H-1,2,4-triazol-1-yl]-N-cyclopropylpyridine-4-carboxamide]	7.54	69.0	5.70
O=C(NCC(F)(F)F)c1ccncc1-n1cnc(Cn2nc(-c3ccc(Cl)cc3)n(C[C@H](O)C(F)(F)F)c2=O)n1 [Example 489, 3-[3-({3-(4-chlorophenyl)-5-oxo-4-[(2S)-3,3,3-trifluoro-2-hydroxypropyl]-4,5-dihydro-1H-1,2,4-triazol-1-yl}methyl)-1H-1,2,4-triazol-1-yl]-N-(2,2,2-trifluoroethyl)pyridine-4-carboxamide]	7.30	34.0	5.77
O=C(N[C@@H]1C[C@@H]1F)c1ccncc1-n1cnc(Cn2nc(-c3ccc(Cl)cc3)n(C[C@H](O)C(F)(F)F)c2=O)n1 [Example 490, 3-[3-({3-(4-Chlorophenyl)-5-oxo-4-[(2S)-3,3,3-trifluoro-2-hydroxypropyl]-4,5-dihydro-1H-1,2,4-triazol-1-yl}methyl)-1H-1,2,4-triazol-1-yl]-N-[(1R,2S)-2-fluorocyclopropyl]pyridine-4-carboxamide]	7.80	23.8	6.42
O=C(NCCC(F)(F)F)c1ccncc1-n1cnc(Cn2nc(-c3ccc(Cl)cc3)n(C[C@H](O)C(F)(F)F)c2=O)n1 [Example 491, 3-[3-({3-(4-Chlorophenyl)-5-oxo-4-[(2S)-3,3,3-trifluoro-2-hydroxypropyl]-4,5-dihydro-1H-1,2,4-triazol-1-yl}methyl)-1H-1,2,4-triazol-1-yl]-N-(3,3,3-trifluoropropyl)pyridine-4-carboxamide]	7.68	61.9	5.89
